Test [1] has as its target T1, human skin fibroblast collagenase (Homo sapiens, UniProt P03956).
T1 construct: endogenous in cells; host or cells: human skin fibroblasts (from the enzyme's name; preparation not described)
T1 sequence (P03956 100-469): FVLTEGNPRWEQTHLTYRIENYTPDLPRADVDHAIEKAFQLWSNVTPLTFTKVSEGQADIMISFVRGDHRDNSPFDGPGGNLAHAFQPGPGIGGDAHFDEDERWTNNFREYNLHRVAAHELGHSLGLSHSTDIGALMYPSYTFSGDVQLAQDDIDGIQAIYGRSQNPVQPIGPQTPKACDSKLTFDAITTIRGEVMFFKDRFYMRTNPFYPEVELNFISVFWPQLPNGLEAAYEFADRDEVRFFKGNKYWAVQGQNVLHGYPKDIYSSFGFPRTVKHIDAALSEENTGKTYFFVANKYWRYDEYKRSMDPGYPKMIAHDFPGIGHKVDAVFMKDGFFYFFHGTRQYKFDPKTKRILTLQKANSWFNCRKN
As to the kind of experiment: Collagenase Assay, Test Code 006 (degradation of 14C-labeled native collagen fibrils). Format: biochemical. The note with it: 16 hours at 37° C., based on 0% value for enzyme control; for inhibition at 30 µg/mL / % Inhibition of Collagenase: test concentration 30 μg/ml. The procedure:
Collagenase assays were performed by a modification of the method of Harper, et. al., Biochem. 10: 3035 (1971). In a typical assay (total volume of 0.45 ml), 100 μl of the activated enzyme was added to the 14 C-labeled collagen fibrils (250 μl) followed by 100 μl of 50 mM cacodylate, pH 7.4, containing 5 mM calcium chloride. After incubation at 37° C. for 16 hours, the tubes were centrifuged in a Beckman microfuge for five minutes at full speed. An aliquot (200 μl) of the supernatant, representing collagenase digestion products of the fibril, was assayed for radioactivity. The effect of the test compound on collagen degradation by collagenase was examined as follows:
Varying concentrations of the test compound (in distilled water or dimethylacetamide) were added to the assay tubes containing active collagenase (total volume 450 μl) and after 16 hours the amount of radioactivity in the supernatant was determined. Appropriate blanks and trypsin controls were run in parallel.
The activities are expressed as % inhibition (lowering) of collagenase activity, i.e., based on the 0% value for the enzyme control.

The subject of another test is corneal ulcerations. The following applies: alkali burned rabbit, eye; cited from earlier work.
A further test has as its system collagenase. The note with it: collagenase, or a proteinase contaminant in the collagenase preparation; cited from earlier work.
The test system of the next test is corneal ulceration. The note with it: human; cited from earlier work.

SMILES strings stand for the structures. Values joined by “and” are separate entries in the source; they are usually repeats but may differ in a detail not shown here. Equal values may be shown once. Where a name gives a salt, the structure may show the parent alone.

The text below walks through data of US4391824A, “Ureylenebis (hydroxy naphthalenesulfonic acids)” (American Cyanamid Company, priority 1981, dated 1983).

`O=C(Nc1cccc(C(=O)Nc2cc3c(O)cc(S(=O)(=O)O)cc3cc2S(=O)(=O)O)c1)Nc1cccc(C(=O)Nc2cc3c(O)cc(S(=O)(=O)O)cc3cc2S(=O)(=O)O)c1` [3,3'-[Ureylenebis(m-phenylenecarbonylimino)]bis[5-hydroxy-2,7-naphthalenedisulfonic acid]tetrasodium salt] returned an inhibition at 30 µg/mL in test [1] of 41%. For the compound `Cc1c(NC(=O)Nc2cccc(C(=O)Nc3cc(S(=O)(=O)O)cc4cc(S(=O)(=O)O)cc(O)c34)c2C)cccc1C(=O)Nc1cc(S(=O)(=O)O)cc2cc(S(=O)(=O)O)cc(O)c12` [4,4'-[Ureylenebis(2-methyl-3,1-phenylenecarbonylimino)]bis[5-hydroxy-2,7-naphthalenedisulfonic acid]tetrasodium salt], in test [1], the “% Inhibition of Collagenase” value came to 45% and the inhibition at 30 µg/mL amounted to 32.2%. For the compound `Cc1cc(C(=O)Nc2cc(S(=O)(=O)O)cc3cc(S(=O)(=O)O)cc(O)c23)ccc1NC(=O)Nc1ccc(C(=O)Nc2cc(S(=O)(=O)O)cc3cc(S(=O)(=O)O)cc(O)c23)cc1C` [4,4'-[Ureylenebis(3-methyl-p-phenylenecarbonylimino)]bis[5-hydroxy-2,7-naphthalenedisulfonic acid]tetrasodium salt], the inhibition at 30 µg/mL in test [1] came to 78%. Turning to `Cc1ccc(NC(=O)Nc2ccc(C)c(C(=O)Nc3cc(S(=O)(=O)O)cc4cc(S(=O)(=O)O)cc(O)c34)c2)cc1C(=O)Nc1cc(S(=O)(=O)O)cc2cc(S(=O)(=O)O)cc(O)c12` [4,4'-[Ureylenebis(6-methyl-3,1-phenylenecarbonylimino)]bis[5-hydroxy-2,7-naphthalenedisulfonic acid]tetrasodium salt], in test [1], the “% Inhibition of Collagenase” value was 36% and 35%; testing at 30 µg/mL gave an inhibition of 50%. Also, in test [1] (test concentration 60 μg/ml), the inhibition at 60 µg/mL came to 39%. `O=C(Nc1cccc(C(=O)Nc2cc(S(=O)(=O)O)cc3cc(S(=O)(=O)O)cc(O)c23)c1)Nc1cccc(C(=O)Nc2cc(S(=O)(=O)O)cc3cc(S(=O)(=O)O)cc(O)c23)c1` [4,4'[Ureylenebis(m-phenylenecarbonylimino)]bis[5-hydroxy-2,7-naphthalenedisulfonic acid]tetrasodium salt] yielded an inhibition at 30 µg/mL in test [1] of 41%. Take `O=C(Nc1ccc(C(=O)Nc2cccc3cc(S(=O)(=O)O)cc(O)c23)c(S(=O)(=O)O)c1)Nc1ccc(C(=O)Nc2cccc3cc(S(=O)(=O)O)cc(O)c23)c(S(=O)(=O)O)c1` [5,5'-[Ureylenebis(2-sulfo-4,1-phenylenecarbonylimino)]bis[4-hydroxy-2-naphthalenesulfonic acid]tetrasodium salt]: at 30 µg/mL the inhibition in test [1] was 58%.

Take `O=C([O-])CN(CCN(CC(=O)[O-])CC(=O)[O-])CC(=O)[O-].[Ca+2].[Ca+2]` [Calcium ethylenediaminetetraacetate]: the frequency of ulceration entry in the test on corneal ulcerations is recorded as “reduce the frequency of ulceration”. In the case of `Cc1ccc(C(=O)Nc2ccc(S(=O)(=O)O)c3cc(S(=O)(=O)O)cc(S(=O)(=O)O)c23)cc1NC(=O)c1cccc(NC(=O)Nc2cccc(C(=O)Nc3cc(C(=O)Nc4ccc(S(=O)(=O)O)c5cc(S(=O)(=O)O)cc(S(=O)(=O)O)c45)ccc3C)c2)c1` [Suramin], in the test on collagenase, the “inhibition of the activity of collagenase” value is given as “not inhibiting the action of collagenase”. On to `CC(=O)N[C@@H](CS)C(=O)O` [acetylcysteine], for which, in the test with corneal ulcerations, the frequency of ulceration entry is “reduce the frequency of ulceration”. Further, the “effectiveness in treatment of acute and chronic corneal ulceration” value with corneal ulceration is “effective”. On to `N[C@@H](CS)C(=O)O` [cysteine], for which the “effectiveness in treatment of acute and chronic corneal ulceration” value with corneal ulceration is “effective”. On to `Cc1cc(-c2ccc(/N=N/c3c(S(=O)(=O)O)cc4cc(S(=O)(=O)O)cc(N)c4c3O)c(C)c2)ccc1/N=N/c1c(S(=O)(=O)O)cc2cc(S(=O)(=O)O)cc(N)c2c1O` [trypan blue], for which the “inhibition of the activity of collagenase” value in the test with collagenase is recorded as “inhibiting the activity of collagenase”.
